Consider 26 molecules from US11129827B2 (priority 2017, dated 2021).

Like-named read-outs stand apart in the source and are kept apart here. Where only a bound is given, the exact number is not on record here.

Broadly, the IC50 is the concentration at which inhibition is half-maximal.

One assay deals with MAGL (Homo sapiens (Human), UniProt Q99685). Briefly: biochemical. To be noted: for inhibition at 1 µM: read-out: MAGL (human) % inh. 1 μM.
The target in a further assay is FAAH (Homo sapiens (Human), UniProt O00519). Briefly: biochemical. The following applies: for inhibition at 1 µM: read-out: FAAH (human) % inh. 1 μM.

Regarding `O=C(Oc1cncc(C(F)(F)F)c1)N1CCC2(CC1)CC(Oc1cccc(C(F)(F)F)c1)C2` [Example 1, 5-(Trifluoromethyl)pyridin-3-yl 2-(3-(trifluoromethyl)phenoxy)-7-azaspiro[3.5]nonane-7-carboxylate], the inhibition at 1 µM on MAGL and on FAAH was greater than 75% throughout. The IC50 on MAGL (read-out: MAGL (human) IC50) and on FAAH (read-out: FAAH (human) IC50) was less than 100 nM each time.

Consider `O=C(Oc1cncc(C(F)(F)F)c1)N1CCC2(CC1)CN(Cc1ccc(Oc3cccc(Cl)c3)cc1)C2` [Example 2, 5-(Trifluoromethyl)pyridin-3-yl 2-(4-(3-chlorophenoxy)benzyl)-2,7-diazaspiro[3.5]nonane-7-carboxylate], for which the IC50 on MAGL (read-out: MAGL (human) IC50) fell in the range of 100 to 1000 nM; on FAAH it was 1000 to 10000 nM.

Turning to `NC(=O)c1cncc(OC(=O)N2CCC3(CCN(Cc4cc(Cl)cc(C(F)(F)F)c4)C3)CC2)c1` [Example 3, 5-Carbamoylpyridin-3-yl 2-(3-chloro-5-(trifluoromethyl)benzyl)-2,8-diazaspiro[4.5]decane-8-carboxylate], the inhibition at 1 µM at MAGL and at FAAH was greater than 75% each time. The 50% inhibitory concentration (IC50) at MAGL (read-out: MAGL (human) IC50) and on FAAH (read-out: FAAH (human) IC50) was less than 100 nM each time.

On to `NC(=O)c1cncc(OC(=O)N2CCC3(CC2)CN(Cc2cccc(Oc4ccc(Cl)cc4)c2)C3)c1` [Example 5, 5-Carbamoylpyridin-3-yl 2-(3-(4-chlorophenoxy)benzyl)-2,7-diazaspiro[3.5]nonane-7-carboxylate], for which the inhibition at 1 µM on MAGL and on FAAH was greater than 75% each time. In addition, the concentration for half-maximal inhibition (IC50) at MAGL (read-out: MAGL (human) IC50) and on FAAH (read-out: FAAH (human) IC50) was less than 100 nM each time.

Consider `O=C(Oc1cncc(C(F)(F)F)c1)N1CCC2(CC1)CN(Cc1ccc(Oc3ccccc3Cl)cc1)C2` [Example 8, 5-(Trifluoromethyl)pyridin-3-yl 2-(4-(2-chlorophenoxy)benzyl)-2,7-diazaspiro[3.5]nonane-7-carboxylate], for which the half-inhibitory concentration (IC50) against MAGL was less than 100 nM; on FAAH (read-out: FAAH (human) IC50), 100 to 1000 nM.

On to `O=C(Oc1cncc(C(F)(F)F)c1)N1CCC2(CC1)CN(Cc1cccc(Oc3ccccc3Cl)c1)C2` [Example 9, 5-(Trifluoromethyl)pyridin-3-yl 2-(3-(2-chlorophenoxy)benzyl)-2,7-diazaspiro[3.5]nonane-7-carboxylate], for which the IC50 at MAGL (read-out: MAGL (human) IC50) and on FAAH (read-out: FAAH (human) IC50) was 100 to 1000 nM in each case.

In the case of `O=C(Oc1cncc(C(F)(F)F)c1)N1CCC2(CC1)CN(Cc1cccc(Oc3cccc(Cl)c3)c1)C2` [Example 10, 5-(Trifluoromethyl)pyridin-3-yl 2-(3-(3-chlorophenoxy)benzyl)-2,7-diazaspiro[3.5]nonane-7-carboxylate], the concentration for half-maximal inhibition (IC50) on MAGL (read-out: MAGL (human) IC50) and on FAAH (read-out: FAAH (human) IC50) was less than 100 nM each time.

For the molecule `O=C(Oc1cncc(C(F)(F)F)c1)N1CCC2(CC1)CN(Cc1cccc(Oc3cncnc3)c1)C2` [Example 11, 5-(Trifluoromethyl)pyridin-3-yl 2-(3-(pyrimidin-5-yloxy)benzyl)-2,7-diazaspiro[3.5]nonane-7-carboxylate], the IC50 on MAGL (read-out: MAGL (human) IC50) and at FAAH (read-out: FAAH (human) IC50) was 100 to 1000 nM each time.

On to `O=C(Oc1cncc(C(F)(F)F)c1)N1CCC2(CC1)CN(Cc1cccc(Oc3cccc(C(F)(F)F)n3)c1)C2` [Example 12, 5-(Trifluoromethyl)pyridin-3-yl 2-(3-((6-(trifluoromethyl)pyridin-2-yl)oxy)benzyl)-2,7-diazaspiro[3.5]nonane-7-carboxylate], for which the results for the inhibition at 1 µM on MAGL and on FAAH were greater than 75% and 50 to 75%, respectively.

`O=C(Oc1cncc(C(F)(F)F)c1)N1CCC2(CC1)CN(Cc1cccc(Oc3ccccc3Cl)c1Cl)C2` [Example 13, 5-(Trifluoromethyl)pyridin-3-yl 2-(2-chloro-3-(2-chlorophenoxy)benzyl)-2,7-diazaspiro[3.5]nonane-7-carboxylate]: the results for the inhibition at 1 µM on MAGL and at FAAH were greater than 75% and 50 to 75%, respectively.

As to `O=C(Oc1cncc(C(F)(F)F)c1)N1CCC2(CC1)CN(Cc1ccc(Cl)c(Oc3ccccc3)c1Cl)C2` [Example 14, 5-(Trifluoromethyl)pyridin-3-yl 2-(2,4-dichloro-3-phenoxybenzyl)-2,7-diazaspiro[3.5]nonane-7-carboxylate], the inhibition at 1 µM on MAGL was greater than 75%; on FAAH, 50 to 75%.

`CC1CCCN1c1ccc(CN2CCN(C(=O)Oc3cncc(C(N)=O)c3)CC2)c(OC(F)(F)F)c1` (centres unmarked) [Example 17, 5-Carbamoylpyridin-3-yl 4-(4-(2-methylpyrrolidin-1-yl)-2-(trifluoromethoxy)benzyl)piperazine-1-carboxylate]: the IC50 was less than 100 nM at MAGL and 100 to 1000 nM on FAAH (read-out: FAAH (human) IC50). Besides, the inhibition at 1 µM at MAGL and on FAAH was greater than 75% in each case.

With `Cc1ncc(C#N)cc1OC(=O)N1CCN(Cc2cccc(C(F)(F)F)c2C)C[C@H]1C` [Example 21, 5-Cyano-2-methylpyridin-3-yl (R)-2-methyl-4-(2-methyl-3-(trifluoromethyl)benzyl)piperazine-1-carboxylate], the half-maximal inhibitory concentration (IC50) fell in the range of 1000 to 10000 nM against MAGL and 100 to 1000 nM on FAAH (read-out: FAAH (human) IC50). For the same molecule, the inhibition at 1 µM is 25 to 50% at MAGL and greater than 75% on FAAH.

With `CC(C)Oc1cccc(CN2CC3(CCN(C(=O)Oc4cncc(C(F)(F)F)c4)CC3)C2)c1` [Example 22, 5-(Trifluoromethyl)pyridin-3-yl 2-(3-isopropoxybenzyl)-2,7-diazaspiro[3.5]nonane-7-carboxylate], the inhibition at 1 µM on MAGL was in the range of 25 to 50%; on FAAH, 50 to 75%.

In the case of `O=C(Oc1cncc(C(F)(F)F)c1)N1CCC2(CC1)CN(Cc1cc(Cl)cc(Oc3nc4ccccc4s3)c1)C2` [Example 23, 5-(Trifluoromethyl)pyridin-3-yl 2-(3-(benzo[d]thiazol-2-yloxy)-5-chlorobenzyl)-2,7-diazaspiro[3.5]nonane-7-carboxylate], the inhibition at 1 µM at MAGL and on FAAH was greater than 75% each time. The IC50 on MAGL (read-out: MAGL (human) IC50) and at FAAH (read-out: FAAH (human) IC50) was less than 100 nM throughout.

As for `CC(C)Oc1cc(Cl)cc(CN2CC3(CCN(C(=O)Oc4cncc(C(F)(F)F)c4)CC3)C2)c1` [Example 24, 5-(Trifluoromethyl)pyridin-3-yl 2-(3-chloro-5-isopropoxybenzyl)-2,7-diazaspiro[3.5]nonane-7-carboxylate], the inhibition at 1 µM on MAGL and on FAAH was greater than 75% in each case.

For `O=C(Oc1cncc(C(F)(F)F)c1)N1CCC2(CC1)CC(Oc1cc(Cl)cc(Cl)c1)C2` [Example 25, 5-(Trifluoromethyl)pyridin-3-yl 2-(3,5-dichlorophenoxy)-7-azaspiro[3.5]nonane-7-carboxylate], the figures for the half-inhibitory concentration (IC50) on MAGL and on FAAH (read-out: FAAH (human) IC50) were less than 100 nM and 100 to 1000 nM, respectively. Also, the inhibition at 1 µM on MAGL and at FAAH was greater than 75% throughout.

Regarding `O=C(Oc1cncc(C(F)(F)F)c1)N1CCC2(CC1)CC(Oc1cccc(C(=O)N3CCCC3)c1)C2` [Example 26, 5-(Trifluoromethyl)pyridin-3-yl 2-(3-(pyrrolidine-1-carbonyl)phenoxy)-7-azaspiro[3.5]nonane-7-carboxylate], the IC50 at MAGL is less than 100 nM; at FAAH (read-out: FAAH (human) IC50) it was 100 to 1000 nM. Moreover, the inhibition at 1 µM at MAGL and at FAAH was greater than 75% in each case.

In the case of `O=C(Oc1cncc(C(F)(F)F)c1)N1CCC2(CC1)CC(Oc1cc(Cl)ccc1Cl)C2` [Example 27, 5-(Trifluoromethyl)pyridin-3-yl 2-(2,5-dichlorophenoxy)-7-azaspiro[3.5]nonane-7-carboxylate], the inhibition at 1 µM at MAGL and on FAAH was greater than 75% throughout.

As for `O=C(Oc1cncc(C(F)(F)F)c1)N1CCC2(CC1)CC(Oc1ccc(-c3ccccc3)cc1)C2` [Example 28, 5-(Trifluoromethyl)pyridin-3-yl 2-([1,1′-biphenyl]-4-yloxy)-7-azaspiro[3.5]nonane-7-carboxylate], the inhibition at 1 µM at MAGL and at FAAH was greater than 75% throughout. Besides, the half-maximal inhibitory concentration (IC50) at MAGL (read-out: MAGL (human) IC50) and at FAAH (read-out: FAAH (human) IC50) was less than 100 nM in each case.

In the case of `O=C(Oc1cncc(C(F)(F)F)c1)N1CCC2(CC1)CC(Oc1cccc(COc3ccc(Cl)cc3)c1)C2` [Example 29, 5-(Trifluoromethyl)pyridin-3-yl 2-(3-((4-chlorophenoxy)methyl)phenoxy)-7-azaspiro[3.5]nonane-7-carboxylate], the inhibition at 1 µM at MAGL and at FAAH was greater than 75% each time. The results for the IC50 at MAGL (read-out: MAGL (human) IC50) and against FAAH were 100 to 1000 nM and less than 100 nM, respectively.

Turning to `O=C(Oc1cncc(C(F)(F)F)c1)N1CCC2(CC1)CN(Cc1ccc(Oc3ccc(Cl)cc3)cc1)C2` [Example 30, 5-(Trifluoromethyl)pyridin-3-yl 2-(4-(4-chlorophenoxy)benzyl)-2,7-diazaspiro[3.5]nonane-7-carboxylate], the IC50 at MAGL (read-out: MAGL (human) IC50) was 100 to 1000 nM; against FAAH, 1000 to 10000 nM.

`O=C(Oc1cncc(C(F)(F)F)c1)N1CCC2(CC1)CN(Cc1cccc(Oc3ccc(Cl)cc3)c1)C2` [Example 31, 5-(Trifluoromethyl)pyridin-3-yl 2-(3-(4-chlorophenoxy)benzyl)-2,7-diazaspiro[3.5]nonane-7-carboxylate]: the IC50 on MAGL (read-out: MAGL (human) IC50) was 100 to 1000 nM; against FAAH, less than 100 nM.

Regarding `O=C(Oc1cncc(C(F)(F)F)c1)N1CCC2(CC1)CN(Cc1cccc(Oc3ccnnc3)c1)C2` [Example 33, 5-(Trifluoromethyl)pyridin-3-yl 2-(3-(pyridazin-4-yloxy)benzyl)-2,7-diazaspiro[3.5]nonane-7-carboxylate], the inhibition at 1 µM at MAGL was in the range of 50 to 75%; on FAAH, 25 to 50%.

On to `O=C(Oc1cncc(C(F)(F)F)c1)N1CCC2(CC1)CN(Cc1ccc(Oc3cncnc3)cc1)C2` [Example 34, 5-(Trifluoromethyl)pyridin-3-yl 2-(4-(pyrimidin-5-yloxy)benzyl)-2,7-diazaspiro[3.5]nonane-7-carboxylate], for which the IC50 at MAGL (read-out: MAGL (human) IC50) lay within 100 to 1000 nM; on FAAH, 1000 to 10000 nM.

For the molecule `CC(C)Oc1cc(CN2CCN(C(=O)Oc3cncc(C(N)=O)c3)[C@@H](C)C2)ccc1Cl` [Example 57, (S)-5-Carbamoylpyridin-3-yl 4-(4-chloro-3-isopropoxybenzyl)-2-methylpiperazine-1-carboxylate], on MAGL, the inhibition at 1 µM is greater than 75%.
